Experiments:
PFV [1] = conditions: previous studies; cited from earlier work
HIV-1 RT = HIV-1 RT (Human immunodeficiency virus type 1 group M subtype B, UniProt P03366); assay: 3TCTP inhibition assay, M13 template, radiolabeled dCTP incorporation; conditions: 1.0 μM 3TCTP; activity without drug set at 100%
Method: The 3TCTP inhibition assays were performed using the M13 template and the −47 primer. The −47 sequencing primer was annealed to the single stranded M13mp18 DNA by heating to 95° C. and slowly cooling to room temperature. The template-primer was extended by adding 1.0 μg of RT in 25 mM Tris(pH 8.0), 75 mM KCl, 8.0 mM MgCl2, 100 μg/ml BSA, 10 mM CHAPS, 10 μM each of dATP, dGTP, and dTTP, 2.0 μM [α-^32P]dCTP, and the indicated concentrations of 3TCTP (Moravek Biochemicals, Brea, Calif.) in a 100 μl reaction volume. The mixture was incubated at 37° C. for 30 min, then halted by the addition of 3 ml of ice-cold trichloroacetic acid (TCA) and the precipitated DNA was collected by suction filtration through Whatman GF/C glass filters. The amount of incorporated radioactivity was determined by liquid scintillation counting.
Samples were TCA precipitated, bound to glass filters, and incorporation of radiolabeled dCTP was measured. […] These levels of RT activity in the absence of drug were set at 100% activity for each recombinant RT.

PFV [2] = conditions: virus producing cells treated with inhibitor
PFV [3] = type: cell-based, Prototype Foamy Virus (SFVcpz(hu))

SMILES | specific inhibition of production of infectious PFV particles (PFV [1]) | also measured
Nc1ccn([C@@H]2CS[C@H](CO)O2)c(=O)n1 [3TC] | not | –
O=c1[nH]cnc2c1ncn2[C@H]1CC[C@@H](CO)O1 [ddI] | not | –
Nc1ccn([C@@H]2CS[C@H](COP(=O)(O)OP(=O)(O)OP(=O)(O)O)O2)c(=O)n1 [3TCTP] | – | activity retained by HIV-1 RT (HIV-1 RT): 37%
Cc1cn([C@H]2C[C@H](N=[N+]=[N-])[C@@H](CO)O2)c(=O)[nH]c1=O [AZT] | specific inhibition was demonstrated | specific decrease in infectivity (PFV [2]): greater than 10 fold
Nc1nc(=O)n(C2CSC(CO)O2)cc1F (stereo not drawn) [FTC, beta-2′,3′-dideoxy-5-fluoro-3′-thiacytidine] | – | Titer Relative to No-Drug Control, Pretreated (PFV [3]): 122
